In patent EP0178946A2, “1-(Aminoalkyl)-alpha, alpha-diaryl pyrrolidine-piperidine- and homopiperidine- acetamides and acetonitriles” (A.H. ROBINS COMPANY, INCORPORATED, priority 1984, dated 1986):

Tested on: Cardiac Arrhythmia in Dogs
Experiment: Ouabain induced arrhythmias: correction of existing ventricular arrhythmia by i.v. infusion
Assay type: in vivo, adult mongrel dogs
Conditions: Canis lupus familiaris, iv, 0.5 h; Ouabain-Induced arrhythmia model; dogs under barbiturate anaesthesia; infusion into a femoral vein at 1 mg/kg/min; active if reversion to sinus rhythm maintained for at least 30 minutes; tested as difumarate hemihydrate salt, dose computed as free base; read-out: Correcting Dose mg/kg, i.v. (computed as free base)
Description: Correction of existing cardiac arrhythmias of ventricular origin is carried out on (1) adult mongrel dogs which are under barbiturate anaesthesia during the test. A Grass Model 7 Polygraph was used for recording femoral arterial blood pressure (Statham P23AC Transducer) and the electro- cardiagram (Grass 7P4 Preamplifier). Ouabain was given intravenously in an initial dose of 40 µg/kg and in a second dose of 20 µg/kg 30 minutes after the first dose and in subsequent doses of 10 µg/kg which were repeated at 15 min. intervals as required for producing cardiac arrhythmias that persisted for at least 15 minutes. When the arrhythmias were established, the test compounds were administered by infusion (Harvard Model 942 Infusion Pump) into a femoral vein at a rate of 1 mg/kg/min. Concentration of compound was adjusted according to the weight of the dog to allow a volume infusion of 1 ml/min. The compound was considered to be active as antiarrhythmic agent if reversion to sinus rhythm occurred which was maintained for at least 30 minutes.
Data obtained for one preferred compound, namely 1-[2-(dimethylamino)ethyl]α,α-diphenyl-3-pyrrolidine- acetamide as represented by its defumarate hemihydrate salt are shown in Table 1.

In the case of `CN(C)CCN1CCC(C(C(N)=O)(c2ccccc2)c2ccccc2)C1` (stereo not drawn) [Example 5, 1-2-(Dimethylamino)ethyl]-α,α-diphenyl-3-pyrrolidine-acetamide difumarate, hemihydrate], the minimal effective dose is reported as 5 mg/kg.
